Measurements: patent US20230002367A1, “BIFUNCTIONAL COMPOUNDS” (Hoffmann-La Roche Inc., priority 2019, published 2023)

Target: T1, SMARCA2 (Homo sapiens, UniProt P51531)
T1 construct: endogenous in cells
Assay: SMARCA2 HiBiT degradation assay (cellular)
Assay type: cell-based
Conditions: for Emax: A549, Emax = amount of residual protein remaining in the cell following compound treatment; for DC50: SMARCA2 HiBiT cells, luminescence readout, 11-point titration from 10 μM, 6 hours or 16 hours, read-out: HiBit A549 SMARCA2 IP

T1 sequence (P51531 whole entry): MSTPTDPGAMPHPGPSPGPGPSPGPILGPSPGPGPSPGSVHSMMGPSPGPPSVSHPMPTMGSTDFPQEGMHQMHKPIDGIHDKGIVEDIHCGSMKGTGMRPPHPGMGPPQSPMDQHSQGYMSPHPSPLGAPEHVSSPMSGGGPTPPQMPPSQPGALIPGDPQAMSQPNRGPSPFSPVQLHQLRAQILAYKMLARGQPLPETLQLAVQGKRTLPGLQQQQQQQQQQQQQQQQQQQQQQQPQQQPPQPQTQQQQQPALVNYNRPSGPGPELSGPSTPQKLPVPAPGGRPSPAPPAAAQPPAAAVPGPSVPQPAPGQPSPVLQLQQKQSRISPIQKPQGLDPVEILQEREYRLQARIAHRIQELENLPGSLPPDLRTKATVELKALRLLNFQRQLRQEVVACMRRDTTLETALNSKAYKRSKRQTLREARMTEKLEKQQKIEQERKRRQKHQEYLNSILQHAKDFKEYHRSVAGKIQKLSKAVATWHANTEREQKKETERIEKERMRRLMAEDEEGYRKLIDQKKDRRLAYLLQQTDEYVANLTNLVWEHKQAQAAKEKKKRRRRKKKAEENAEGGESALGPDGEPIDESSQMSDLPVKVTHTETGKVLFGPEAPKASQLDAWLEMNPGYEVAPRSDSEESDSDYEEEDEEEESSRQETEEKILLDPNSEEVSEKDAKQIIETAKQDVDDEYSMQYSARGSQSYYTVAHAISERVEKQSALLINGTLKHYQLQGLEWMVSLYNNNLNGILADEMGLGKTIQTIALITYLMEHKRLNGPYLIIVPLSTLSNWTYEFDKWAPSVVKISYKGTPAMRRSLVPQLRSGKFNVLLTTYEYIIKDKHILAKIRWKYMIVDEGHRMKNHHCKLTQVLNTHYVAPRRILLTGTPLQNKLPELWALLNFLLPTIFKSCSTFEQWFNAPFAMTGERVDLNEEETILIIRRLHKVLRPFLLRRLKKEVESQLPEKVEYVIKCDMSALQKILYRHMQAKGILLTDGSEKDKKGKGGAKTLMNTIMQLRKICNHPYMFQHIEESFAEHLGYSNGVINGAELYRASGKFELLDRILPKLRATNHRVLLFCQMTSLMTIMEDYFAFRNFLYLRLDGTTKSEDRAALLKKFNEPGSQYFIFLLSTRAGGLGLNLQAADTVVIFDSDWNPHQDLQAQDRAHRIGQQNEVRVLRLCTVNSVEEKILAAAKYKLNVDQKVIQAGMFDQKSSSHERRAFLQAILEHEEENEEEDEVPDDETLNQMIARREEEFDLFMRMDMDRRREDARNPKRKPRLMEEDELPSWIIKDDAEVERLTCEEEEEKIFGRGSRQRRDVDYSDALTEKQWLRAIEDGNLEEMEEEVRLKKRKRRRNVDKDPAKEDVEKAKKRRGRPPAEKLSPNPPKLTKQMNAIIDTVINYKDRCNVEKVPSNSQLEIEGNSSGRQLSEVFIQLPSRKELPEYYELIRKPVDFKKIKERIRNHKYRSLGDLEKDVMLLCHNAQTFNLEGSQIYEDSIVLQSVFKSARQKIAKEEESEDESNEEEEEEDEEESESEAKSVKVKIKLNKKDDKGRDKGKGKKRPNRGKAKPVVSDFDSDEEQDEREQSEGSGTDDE

Cc1ncsc1-c1ccc(CNC(=O)[C@@H]2C[C@@H](O)CN2C(=O)[C@@H](NC(=O)CCCCCCCCC(=O)N2C3CCCC2CN(c2cc(-c4ccccc4O)nnc2N)C3)C(C)(C)C)cc1 [Example 19, (2S,4R)-1-[(2S)-2-[[10-[3-[3-Amino-6-(2-hydroxyphenyl)pyridazin-4-yl]-3,9-diazabicyclo[3.3.1]nonan-9-yl]-10-oxo-decanoyl]amino]-3,3-dimethyl-butanoyl]-4-hydroxy-N-[[4-(4-methylthiazol-5-yl)phenyl]methyl]pyrrolidine-2-carboxamide]
Emax: 18% | DC50: 754 nM

Cc1ncsc1-c1ccc(CNC(=O)[C@@H]2C[C@@H](O)CN2C(=O)[C@H](NC(=O)CCCCCCCCCOc2cccc(N3C4CCC3CN(c3cc(-c5ccccc5O)nnc3N)C4)c2)C(C)(C)C)cc1 [Example 20, (2S,4R)-1-[(2R)-2-[10-[3-[3-[3-amino-6-(2-hydroxyphenyl)pyridazin-4-yl]-3,8-diazabicyclo[3.2.1]octan-8-yl]phenoxy]decanoylamino]-3,3-dimethyl-butanoyl]-4-hydroxy-N-[[4-(4-methylthiazol-5-yl)phenyl]methyl]pyrrolidine-2-carboxamide]
Emax: 33% | DC50: 313 nM

Cc1ncsc1-c1ccc(CNC(=O)[C@@H]2C[C@@H](O)CN2C(=O)[C@@H](NC(=O)CCCCCCCCC(=O)N2CCN(Cc3cccc(CN4C5CCC4CN(c4cc(-c6ccccc6O)nnc4N)C5)c3)CC2)C(C)(C)C)cc1 [Example 29, (2S,4R)-1-[(2S)-2-[[10-[4-[[3-[[3-[3-amino-6-(2-hydroxyphenyl)pyridazin-4-yl]-3,8-diazabicyclo[3.2.1]octan-8-yl]methyl]phenyl]methyl]piperazin-1-yl]-10-oxo-decanoyl]amino]-3,3-dimethyl-butanoyl]-4-hydroxy-N-[[4-(4-methylthiazol-5-yl)phenyl]methyl]pyrrolidine-2-carboxamide]
Emax: 30% | DC50: 1110 nM

Cc1ncsc1-c1ccc(CNC(=O)[C@@H]2C[C@@H](O)CN2C(=O)[C@H](C(C)C)N2Cc3ccccc3C2=O)c(OCCCCCCCCCCC(=O)N2CCN(CCOc3cccc(N4C5CCC4CN(c4cc(-c6ccccc6O)nnc4N)C5)c3)CC2)c1 [Example 30, (2S,4R)-N-[[2-[11-[4-[2-[3-[3-[3-amino-6-(2-hydroxyphenyl)pyridazin-4-yl]-3,8-diazabicyclo[3.2.1]octan-8-yl]phenoxy]ethyl]piperazin-1-yl]-11-oxo-undecoxy]-4-(4-methylthiazol-5-yl)phenyl]methyl]-4-hydroxy-1-[(2S)-3-methyl-2-(1-oxoisoindolin-2-yl)butanoyl]pyrrolidine-2-carboxamide]
Emax: 65% | DC50: 1160 nM

Cc1ncsc1-c1ccc(CNC(=O)[C@@H]2C[C@@H](O)CN2C(=O)[C@@H](NC(=O)CCCCCCCCC(=O)N2CCN(CCOc3cccc(C#Cc4cc(-c5ccccc5O)nnc4N)c3)CC2)C(C)(C)C)cc1 [Example 35, (2S,4R)-1-[(2S)-2-[[10-[4-[2-[3-[2-[3-amino-6-(2-hydroxyphenyl)pyridazin-4-yl]ethynyl]phenoxy]ethyl]piperazin-1-yl]-10-oxo-decanoyl]amino]-3,3-dimethyl-butanoyl]-4-hydroxy-N-[[4-(4-methylthiazol-5-yl)phenyl]methyl]pyrrolidine-2-carboxamide]
Emax: 39% | DC50: 952 nM

Cc1ncsc1-c1ccc(CNC(=O)[C@@H]2C[C@@H](O)CN2C(=O)[C@@H](NC(=O)CCCCCCCCCCC(=O)N2CCN(CCOc3cccc(C#Cc4cc(-c5ccccc5O)nnc4N)c3)CC2)C(C)(C)C)cc1 [Example 36, (2S,4R)-1-[(2S)-2-[[12-[4-[2-[3-[2-[3-amino-6-(2-hydroxyphenyl)pyridazin-4-yl]ethynyl]phenoxy]ethyl]piperazin-1-yl]-12-oxo-dodecanoyl]amino]-3,3-dimethyl-butanoyl]-4-hydroxy-N-[[4-(4-methylthiazol-5-yl)phenyl]methyl]pyrrolidine-2-carboxamide]
Emax: 49% | DC50: 838 nM

Cc1ncsc1-c1ccc([C@H](C)NC(=O)[C@@H]2C[C@@H](O)CN2C(=O)[C@@H](NC(=O)CCCCCCCCCC(=O)N2CCN(CCOc3cccc(N4C5CCC4CN(c4cc(-c6ccccc6O)nnc4N)C5)c3)CC2)C(C)(C)C)cc1 [Example 37, (2S,4R)-1-[(2S)-2-[[11-[4-[2-[3-[3-[3-amino-6-(2-hydroxyphenyl)pyridazin-4-yl]-3,8-diazabicyclo[3.2.1]octan-8-yl]phenoxy]ethyl]piperazin-1-yl]-11-oxo-undecanoyl]amino]-3,3-dimethyl-butanoyl]-4-hydroxy-N-[(1S)-1-[4-(4-methylthiazol-5-yl)phenyl]ethyl]pyrrolidine-2-carboxamide]
Emax: 29% | DC50: 73 nM

Cc1ncsc1-c1ccc([C@H](C)NC(=O)[C@@H]2C[C@@H](O)CN2C(=O)[C@@H](NC(=O)CCC(=O)N2CCOC3(CCN(c4cc(-c5ccccc5O)nnc4N)CC3)C2)C(C)(C)C)cc1 [Example 42, (2S,4R)-1-[(2S)-2-[[4-[9-[3-amino-6-(2-hydroxyphenyl)pyridazin-4-yl]-1-oxa-4,9-diazaspiro[5.5]undecan-4-yl]-4-oxo-butanoyl]amino]-3,3-dimethyl-butanoyl]-4-hydroxy-N-[(1S)-1-[4-(4-methylthiazol-5-yl)phenyl]ethyl]pyrrolidine-2-carboxamide]
Emax: 71% | DC50: 561 nM

Cc1ncsc1-c1ccc([C@H](C)NC(=O)[C@@H]2C[C@@H](O)CN2C(=O)[C@@H](NC(=O)CCCCCC(=O)N2CCOC3(CCN(c4cc(-c5ccccc5O)nnc4N)CC3)C2)C(C)(C)C)cc1 [Example 43, (2S,4R)-1-[(2S)-2-[[7-[9-[3-amino-6-(2-hydroxyphenyl)pyridazin-4-yl]-1-oxa-4,9-diazaspiro[5.5]undecan-4-yl]-7-oxo-heptanoyl]amino]-3,3-dimethyl-butanoyl]-4-hydroxy-N-[(1S)-1-[4-(4-methylthiazol-5-yl)phenyl]ethyl]pyrrolidine-2-carboxamide]
Emax: 23% | DC50: 749 nM

Cc1ncsc1-c1ccc([C@H](C)NC(=O)[C@@H]2C[C@@H](O)CN2C(=O)[C@@H](NC(=O)CCCCCCCCCCC(=O)N2CCOC3(CCN(c4cc(-c5ccccc5O)nnc4N)CC3)C2)C(C)(C)C)cc1 [Example 44, (2S,4R)-1-[(2S)-2-[[12-[9-[3-amino-6-(2-hydroxyphenyl)pyridazin-4-yl]-1-oxa-4,9-diazaspiro[5.5]undecan-4-yl]-12-oxo-dodecanoyl]amino]-3,3-dimethyl-butanoyl]-4-hydroxy-N-[(1S)-1-[4-(4-methylthiazol-5-yl)phenyl]ethyl]pyrrolidine-2-carboxamide]
Emax: 21% | DC50: 205 nM

Cc1ncsc1-c1ccc([C@H](C)NC(=O)[C@@H]2C[C@@H](O)CN2C(=O)[C@@H](NC(=O)CCCCCCCCCCCCC(=O)N2CCOC3(CCN(c4cc(-c5ccccc5O)nnc4N)CC3)C2)C(C)(C)C)cc1 [Example 45, (2S,4R)-1-[(2S)-2-[[14-[9-[3-amino-6-(2-hydroxyphenyl)pyridazin-4-yl]-1-oxa-4,9-diazaspiro[5.5]undecan-4-yl]-14-oxo-tetradecanoyl]amino]-3,3-dimethyl-butanoyl]-4-hydroxy-N-[(1S)-1-[4-(4-methylthiazol-5-yl)phenyl]ethyl]pyrrolidine-2-carboxamide]
Emax: 33% | DC50: 120 nM

Cc1ncsc1-c1ccc(CNC(=O)[C@@H]2C[C@@H](O)CN2C(=O)[C@@H](NC(=O)CCCCCCCCC(=O)NCC(COc2cc(-c3ccccc3O)nnc2N)c2ccccc2)C(C)(C)C)cc1 (stereo partly drawn) [Example 50, N1-(3-((3-amino-6-(2-hydroxyphenyl)pyridazin-4-yl)oxy)-2-phenylpropyl)-N10-((S)-1-((2S,4R)-4-hydroxy-2-((4-(4-methylthiazol-5-yl)benzyl)carbamoyl)pyrrolidin-1-yl)-3,3-dimethyl-1-oxobutan-2-yl)decanediamide]
Emax: 63% | DC50: 2150 nM

Cc1ncsc1-c1ccc(CNC(=O)[C@@H]2C[C@@H](O)CN2C(=O)[C@@H](NC(=O)CCCCCCCCC(=O)N2CCN(CCOc3cccc(N4CCOC5(CCN(c6cc(-c7ccccc7O)nnc6N)CC5)C4)c3)CC2)C(C)(C)C)cc1 [Example 52, (2S,4R)-1-[(2S)-2-[[10-[4-[2-[3-[9-[3-amino-6-(2-hydroxyphenyl)pyridazin-4-yl]-1-oxa-4,9-diazaspiro[5.5]undecan-4-yl]phenoxy]ethyl]piperazin-1-yl]-10-oxo-decanoyl]amino]-3,3-dimethyl-butanoyl]-4-hydroxy-N-[[4-(4-methylthiazol-5-yl)phenyl]methyl]pyrrolidine-2-carboxamide]
Emax: 56% | DC50: 533 nM

Cc1ncsc1-c1ccc(CNC(=O)[C@@H]2C[C@@H](O)CN2C(=O)[C@@H](NC(=O)CCCCCCCCC(=O)N2CCN(Cc3cccc(C#Cc4cc(-c5ccccc5O)nnc4N)c3)CC2)C(C)(C)C)cc1 [Example 53, (2S,4R)-1-[(2S)-2-[[10-[4-[[3-[2-[3-amino-6-(2-hydroxyphenyl)pyridazin-4-yl]ethynyl]phenyl]methyl]piperazin-1-yl]-10-oxo-decanoyl]amino]-3,3-dimethyl-butanoyl]-4-hydroxy-N-[[4-(4-methylthiazol-5-yl)phenyl]methyl]pyrrolidine-2-carboxamide]
Emax: 44% | DC50: 240 nM

Cc1ncsc1-c1ccc(CNC(=O)[C@@H]2C[C@@H](O)CN2C(=O)[C@@H](NC(=O)CCCCCCCCCCC(=O)N2CCN(Cc3cccc(C#Cc4cc(-c5ccccc5O)nnc4N)c3)CC2)C(C)(C)C)cc1 [Example 54, (2S,4R)-1-[(2S)-2-[[12-[4-[[3-[2-[3-amino-6-(2-hydroxyphenyl)pyridazin-4-yl]ethynyl]phenyl]methyl]piperazin-1-yl]-12-oxo-dodecanoyl]amino]-3,3-dimethyl-butanoyl]-4-hydroxy-N-[[4-(4-methylthiazol-5-yl)phenyl]methyl]pyrrolidine-2-carboxamide]
Emax: 35% | DC50: 503 nM
